Test results: paper PMC5898707, “Piperazinyl fragment improves anticancer activity of Triapine” (PLoS ONE, 2018)

Key:
HCT116 p53^+/+ = experiment: Cytotoxicity MTS assay, 72 h; assay type: cell-based, human; conditions: Homo sapiens, HCT-116; HCT116 p53^+/+; 72 h; MTS
Description: (§1) The human colon carcinoma cell line HCT116 wild type (p53^+/+), human breast carcinoma cell line MCF-7 and glioblastoma cell line Hs683 were obtained from ATCC. The glioma cell line U-251 was purchased from Sigma Aldrich and the normal human fibroblast cell lines NHDF from PromoCell. The human colon cancer cell line HCT116 with a p53 deletion (p53^-/-) was kindly provided by Prof. M. Rusin from the Maria Sklodowska-Curie Memorial Cancer Centre and Institute of Oncology in Gliwice, Poland. Cells were grown as monolayer cultures in Dulbecco’s modified Eagle’s medium with an antibiotic gentamicin (200 μL/100 mL medium) in 75 cm^2 flasks (Nunc). DMEM for HCT116, MCF-7, U-251, Hs683 were supplemented with 12% heat-inactivated fetal bovine serum (Sigma) and for NHDF with 15% non-inactivated fetal bovine serum (Sigma). All the cell lines were cultured under standard conditions at 37°C in a humidified atmosphere at 5% CO2.
(§2) The cells were seeded in 96-well plates (Nunc) at a density of 5,000 cells/well (HCT116, MCF-7, U-251, Hs683) and 4,000 cells/well (NHDF) and incubated at 37°C for 24 h. The assay was performed following a 72 h incubation with varying concentrations of the compounds that were tested. Then, 20 μL of The CellTiter 96®AQueous One Solution-MTS (Promega) solution was added to each well (with 100 μL DMEM without phenol red) and incubated for 1 h at 37°C. The optical densities of the samples were analyzed at 490 nm using a multi-plate reader (Synergy 4, Bio Tek). Results were expressed as a percentage of the control and calculated as the inhibitory concentration (IC50) values using GraphPad Prism 5. The IC50 parameter was defined as the compound concentration that was necessary to reduce the proliferation of cells to 50% of the untreated control. Each individual compound was tested in triplicate in a single experiment with each experiment being repeated four to five times.

HCT116 p53^-/- = experiment: Cytotoxicity MTS assay, 72 h; assay type: cell-based, human; conditions: Homo sapiens, HCT-116; HCT116 p53^-/-; 72 h; MTS
Description: as §1, §2

Hs683 = experiment: Cytotoxicity MTS assay, 72 h; assay type: cell-based, human; conditions: Homo sapiens, Hs 683; Hs683; 72 h; MTS
Description: as §1, §2

MCF-7 = experiment: Cytotoxicity MTS assay, 72 h; assay type: cell-based, human; conditions: Homo sapiens, MCF7; MCF-7; 72 h; MTS
Description: as §1, §2

U-251 = experiment: Cytotoxicity MTS assay, 72 h; assay type: cell-based, human; conditions: Homo sapiens; U-251; 72 h; MTS
Description: as §1, §2

NHDF = experiment: Cytotoxicity MTS assay, 72 h; assay type: cell-based; conditions: Homo sapiens, NHDF normal fibroblasts
Description: as §1, §2

Row | melting point [°C] | SMILES | IC50 (HCT116 p53^+/+) [µM] | IC50 (HCT116 p53^-/-) [µM] | IC50 (Hs683) [µM] | IC50 (MCF-7) [µM] | IC50 (U-251) [µM] | IC50 (NHDF) [µM]
1 | 189 to 190 | Nc1cccnc1C=NNC(=S)N1CCN(c2ccccc2)CC1 [L^1, N’-[(3-aminopyridin-2-yl)methylidene]-4-phenylpiperazine-1-carbothiohydrazide] | 1.52 ± 0.445 | 0.128 ± 0.012 | 1.44 ± 0.358 | 0.532 ± 0.145 | 0.403 ± 0.09 | > 25
2 | 210 to 211 | Nc1cccnc1C=NNC(=S)N1CCN(c2ccc(F)cc2)CC1 [L^2, N’-[(3-aminopyridin-2-yl)methylidene]-4-(4-fluorophenyl)piperazine-1-carbothiohydrazide] | 0.526 ± 0.077 | 0.152 ± 0.074 | 2.49 ± 0.512 | 0.36 ± 0.111 | 0.887 ± 0.158 | > 25
3 | 195 to 196 | COc1ccc(N2CCN(C(=S)NN=Cc3ncccc3N)CC2)cc1 [L^4, N’-[(3-aminopyridin-2-yl)methylidene]-4-(4-methoxyphenyl)piperazine-1-carbothiohydrazide] | 1.33 ± 0.209 | 0.185 ± 0.088 | 4.46 ± 0.954 | 0.424 ± 0.149 | 0.649 ± 0.17 | > 25
4 | 209 to 210 | N#Cc1ccc(N2CCN(C(=S)NN=Cc3ncccc3N)CC2)cc1 [L^5, N’-[(3-aminopyridin-2-yl)methylidene]-4-(4-cyanophenyl)piperazine-1-carbothiohydrazide] | 1.45 ± 0.452 | 0.746 ± 0.354 | 10.1 ± 2.64 | 3.81 ± 1.02 | 2.57 ± 0.675 | > 25
5 | 179 to 180 | Nc1cccnc1C=NNC(=S)N1CCN(c2ccc(C(F)(F)F)cc2[N+](=O)[O-])CC1 [L^6, N’-[(3-aminopyridin-2-yl)methylidene]-4-[2-nitro-4-(trifluoromethyl)phenyl]piperazine-1-carbothiohydrazide] | 0.139 ± 0.016 | 0.27 ± 0.007 | 1.89 ± 0.812 | 0.47 ± 0.097 | 0.381 ± 0.042 | > 25
6 | 193 to 194 | CC(C)(C)OC(=O)N1CCN(C(=S)NN=Cc2ncccc2N)CC1 [L^7, tert-butyl 4-({2-[(3-aminopyridin-2-yl)methylidene]hydrazinyl}carbonothioyl)piperazine-1-carboxylate] | 0.762 ± 0.238 | 1.13 ± 0.049 | 4.62 ± 1.03 | 2.54 ± 0.4 | 3.08 ± 1.27 | > 25
